From US4294838A, “Certain heterocyclic sulfoximide derivatives” (priority 1977, dated 1981)
Converted amounts (≈) assume the structure as drawn. Where two headings read alike, the source gives them in different places.

Experiments:
[1] = Acute toxicity in mice (LD50, Litchfield and Wilcoxon); settings: mouse, in vivo, male NRMI mice
Protocol: The acute toxicity has been determined in male mice (NRMI strain) weighing 17 to 21 g. The animals were fasted 24 hours prior to the trial. Water was offered ad libidum. The substances were administered subcutaneously and by using a gastric tube in increasing doses to groups consisting of 6 animals. The animals were observed over a period of 24 hours. The LD50 values were determined according to the method of Litchfield and Wilcoxon (Therap. Grundlagen der experimentellen Arzneimittelforschung--Ther. Fundamentals of Experimental Durg Research--1965--page 82). The findings were compiled as average values in the following tables: […]

[2] = system: acetylcholine-spasm (bronchospasm); test: Bronchospasmolytic activity (Konzett and Roessler), acetylcholine-spasm; assay type: in vivo, guinea pigs; settings: Cavia porcellus, iv, 2 min; guinea pig, i.v., 2 min before acetylcholine; read-out: ED100 Acetyl-choline (bronchospasmolytic)
Protocol: (§1) The method described by Konzett and Roessler was employed (Arch.exp.Path.Pharmak. 195, 72 (1940).
(§2) Experimental animals were guinea pigs weighing between 280 and 380 g. The animals were kept under urethane narcosis (1.5 g/kg i.m.) and their chests opened. The animals received artificial respiration by means of a respiratory pump. The respiratory pressure was adjusted by a mercury manometer. Every 4 minutes a bronchospasm was caused by intravenous application (vena jugularis) of spasmodics. These were acetylcholine and histamine. Two minutes prior to the injection of a spasmodic, the substances under investigation were administered, i.e. again by intravenous injection. […] With respect to the histamine-spasm they were active in the range of […].

[3] = system: histamine-spasm (bronchospasm); test: Bronchospasmolytic activity (Konzett and Roessler), histamine-spasm; assay type: in vivo, guinea pigs; settings: Cavia porcellus, iv, 2 min; guinea pig, i.v., 2 min before histamine
Protocol: as §1, §2

[4] = system: ileum preparations, acetylcholine spasm; test: Spasmolytic activity on isolated ileum (Magnus), acetylcholine spasm; design: species or system Guinea pigs; settings: Cavia porcellus, guinea pig ileum, 37° C, acetylcholine 4×10^-7 g/ml; for IC50: read-out: ED50 Acetylcholine (spasmolytic)
Protocol: (§3) The method described by Magnus was employed [Therap. Grundlagen der Experimentellen Arzneimittelforschung, Wiss. Verlagsgesellschaft, Stuttgart (1965) page 241].
(§4) Guinea pigs of both sexes weighing between 200 and 500 g were killed by cervical blow. After that they were allowed to bleed and then laparotomized. About 15 cm of the distal ileum were then placed into a Krebs-Henseleit-solution at 37° C.
(§5) Ileum preparations of about 1 cm length were fixed in a special vessel containing 25 ml of the Krebs-Henseleit-solution which were percolated by a gas mixture (Carbogen) consisting of 95% oxygen and 5% carbon dioxide. The temperature of the bath was maintained at 37° C. The movements of the ileum preparations were observed by a lampblack-kymograph.
(§6) Every 10 minutes single spasms were caused with solutions of acetylcholine (4×10^-7 g/ml) barium chloride (4×10^-4 g/ml) and histamine (8×10^-6 g/ml) in the Krebs-Henseleit-solution. Five minutes after application the spasms were stopped by rinsing the ileum segments with a Krebs-Henseleit-solution which was free of spasmodics. The tested compounds were added to ther Krebs-Henseleit-solution 2 minutes after causing the spasms.

[5] = system: ileum preparations, barium chloride spasm; test: Spasmolytic activity on isolated ileum (Magnus), barium chloride spasm; design: species or system Guinea pigs; settings: Cavia porcellus, guinea pig ileum, 37° C, barium chloride 4×10^-4 g/ml; for IC50: read-out: ED50 Barium-Chloride (spasmolytic)
Protocol: as §3, §4, §5, §6

[6] = system: ileum preparations, histamine spasm; test: Spasmolytic activity on isolated ileum (Magnus), histamine spasm; design: species or system Guinea pigs; settings: Cavia porcellus, guinea pig ileum, 37° C, histamine 8×10^-6 g/ml; for IC50: read-out: ED50 Histamine (spasmolytic)
Protocol: as §3, §4, §5, §6

[7] = po, w.i.g. (gastric tube), read-out: Acute Toxicity LD50, w.i.g.
[8] = sc, subcutaneous, read-out: Acute Toxicity LD50, S.C.

CCN(CC)CCN=S(=O)(c1ccccc1)c1cccs1 (stereo not drawn) [Example 1, N-(2-Diethylaminoethyl)-S-phenyl-S-(2-thienyl)-sulphoximide]
LD50 at 24 h [1, 7]: 200 mg/kg
LD50 at 24 h [1, 8]: 150 mg/kg
ED100 [2]: 1 mg/kg
ED100 [3]: > 4 mg/kg
IC50 [4]: 1 µg/mL (≈ 3.1 µM)
IC50 [5]: 80 µg/mL (≈ 248 µM)
IC50 [6]: 5 µg/mL (≈ 15.5 µM)

C[N+](C)(C)CCCN=S(=O)(c1ccccc1)c1cccs1 (stereo not drawn) [Example 2, N-(3-trimethylammoniumpropyl)-S-phenyl-S-(2-thienyl)-sulphoximide iodide]
LD50 at 24 h [1, 7]: > 400 mg/kg
LD50 at 24 h [1, 8]: 300 mg/kg
IC50 [4]: 5 µg/mL

CN(C)CCCN=S(=O)(c1ccccc1)c1cccs1 (centres unmarked) [Example 2]
LD50 at 24 h [1, 7]: < 800 mg/kg
LD50 at 24 h [1, 8]: 600 mg/kg
IC50 [4]: > 1 µg/mL
IC50 [5]: > 10 µg/mL
IC50 [6]: 50 µg/mL (≈ 162 µM)

O=S(=NCCN1CCCC1)(c1ccccc1)c1cccs1 (stereo not drawn) [Example 3, N-(2-Pyrrolidinoethyl)-S-phenyl-S-(2-thienyl)-sulphoximide]
LD50 at 24 h [1, 7]: 150 mg/kg
IC50 [4]: > 1 µg/mL
IC50 [6]: 5 µg/mL (≈ 15.6 µM)

CCN(CC)CCN=S(=O)(c1ccccc1)c1ccsc1 (stereo not drawn) [Example 4, N-(2-Diethylaminoethyl)-S-phenyl-S-(3-thienyl)-sulphoximide]
LD50 at 24 h [1, 7]: 200 mg/kg
LD50 at 24 h [1, 8]: 150 mg/kg
ED100 [2]: > 2 mg/kg
ED100 [3]: > 8 mg/kg
IC50 [4]: 1 µg/mL (≈ 3.1 µM)
IC50 [5]: 40 µg/mL (≈ 124 µM)
IC50 [6]: 10 µg/mL (≈ 31 µM)

CCN(CC)CCN=S(=O)(c1cccs1)c1cccs1 [Example 5, N-(2-Diethylaminoethyl)-S,S-bis-(2-thienyl)-sulphoximide]
LD50 at 24 h [1, 7]: 250 mg/kg
LD50 at 24 h [1, 8]: 100 mg/kg
ED100 [2]: 2 mg/kg
ED100 [3]: > 8 mg/kg
IC50 [4]: 1 µg/mL (≈ 3.04 µM)
IC50 [5]: 40 µg/mL (≈ 122 µM)
IC50 [6]: 10 µg/mL (≈ 30.4 µM)

O=S(=NCCN1CCCCC1)(c1cccs1)c1cccs1 [Example 6, N-(2-Piperidinoethyl)-S,S-bis-(2-thienyl)-sulphoximide]
LD50 at 24 h [1, 7]: 200 mg/kg
IC50 [4]: 5 µg/mL (≈ 14.7 µM)
IC50 [5]: 80 µg/mL (≈ 235 µM)
IC50 [6]: 10 µg/mL (≈ 29.4 µM)

O=S(=NCCN1CCOCC1)(c1cccs1)c1cccs1 [Example 7, N-(2-Morpholinoethyl)-S,S-bis-(2-thienyl)-sulphoximide]
LD50 at 24 h [1, 7]: 1000 mg/kg
IC50 [4]: 4 µg/mL (≈ 11.7 µM)
IC50 [6]: 40 µg/mL (≈ 117 µM)

CCN(CC)CCN=S(=O)(c1ccsc1)c1cccs1 (stereo not drawn) [Example 8, N-(2-Diethylaminoethyl)-S-(2-thienyl)-S-(3-thienyl)-sulphoximide]
LD50 at 24 h [1, 7]: < 300 mg/kg
LD50 at 24 h [1, 8]: 250 mg/kg
ED100 [2]: 2 mg/kg
ED100 [3]: 4 mg/kg
IC50 [4]: 0.5 µg/mL (≈ 1.52 µM)
IC50 [5]: 80 µg/mL (≈ 244 µM)
IC50 [6]: 2 µg/mL (≈ 6.09 µM)

CCN(CC)CCN=S(=O)(c1ccsc1)c1ccsc1 [Example 9, N-(2-Diethylaminoethyl)-S,S-bis-(3-thienyl)-sulphoximide]
LD50 at 24 h [1, 7]: > 30 mg/kg
LD50 at 24 h [1, 8]: 30 mg/kg
ED100 [2]: 4 mg/kg
ED100 [3]: > 8 mg/kg
IC50 [4]: 0.25 µg/mL (≈ 0.761 µM)
IC50 [6]: 10 µg/mL (≈ 30.4 µM)

CCN(CC)CCN=S(=O)(c1ccccc1)c1ccco1 (stereo not drawn) [Example 10, N-(2-Diethylaminoethyl)-S-(2-furyl)-S-phenyl-sulphoximide]
LD50 at 24 h [1, 7]: 400 mg/kg
LD50 at 24 h [1, 8]: 150 mg/kg

CCN(CC)CCN=S(=O)(c1ccccc1)c1cccnc1 (stereo not drawn) [Example 12, N-(2-Diethylaminoethyl)-S-phenyl-S-(3-pyridyl)-sulphoximide]
LD50 at 24 h [1, 7]: 1600 mg/kg

CCN(CC)CCN=S(=O)(c1ccccc1)c1ccccc1 [Sulfoxifen-Phosphate, N(2-Diethylaminoethyl)-diphenyl-sulfoximin, reference compound]
LD50 at 24 h [1, 7]: 180 mg/kg
LD50 at 24 h [1, 8]: 175 mg/kg
ED100 [2]: 4 mg/kg
ED100 [3]: 4 mg/kg
IC100 ([4]; (ED100)): 1 µg/mL
IC50 [4]: 0.1 µg/mL (≈ 0.316 µM)
IC100 ([5]; (ED100)): 80 µg/mL
IC50 [5]: 40 µg/mL (≈ 126 µM)
IC100 ([6]; (ED100)): 10 µg/mL
IC50 [6]: 1 µg/mL (≈ 3.16 µM)
